Key:
[1] = target: T1, GABAA receptor α1 subunit (α1β3 GABAAR) (Homo sapiens, UniProt P14867+P28472); assay: photoaffinity labeling with residue identification; assay type: binding
T1 sequence (P14867 28-456): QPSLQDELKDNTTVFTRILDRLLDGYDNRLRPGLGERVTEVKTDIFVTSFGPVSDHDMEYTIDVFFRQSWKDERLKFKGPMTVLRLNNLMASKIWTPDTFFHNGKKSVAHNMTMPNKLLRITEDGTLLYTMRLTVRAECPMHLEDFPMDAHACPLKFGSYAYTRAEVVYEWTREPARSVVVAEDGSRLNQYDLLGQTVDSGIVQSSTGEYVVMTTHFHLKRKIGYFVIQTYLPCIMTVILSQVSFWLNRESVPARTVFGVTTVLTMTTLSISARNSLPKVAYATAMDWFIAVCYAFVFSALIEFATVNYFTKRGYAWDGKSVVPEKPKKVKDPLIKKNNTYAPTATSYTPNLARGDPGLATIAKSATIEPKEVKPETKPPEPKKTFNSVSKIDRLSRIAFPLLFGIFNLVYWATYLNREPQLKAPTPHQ
T1 sequence (P28472 26-473): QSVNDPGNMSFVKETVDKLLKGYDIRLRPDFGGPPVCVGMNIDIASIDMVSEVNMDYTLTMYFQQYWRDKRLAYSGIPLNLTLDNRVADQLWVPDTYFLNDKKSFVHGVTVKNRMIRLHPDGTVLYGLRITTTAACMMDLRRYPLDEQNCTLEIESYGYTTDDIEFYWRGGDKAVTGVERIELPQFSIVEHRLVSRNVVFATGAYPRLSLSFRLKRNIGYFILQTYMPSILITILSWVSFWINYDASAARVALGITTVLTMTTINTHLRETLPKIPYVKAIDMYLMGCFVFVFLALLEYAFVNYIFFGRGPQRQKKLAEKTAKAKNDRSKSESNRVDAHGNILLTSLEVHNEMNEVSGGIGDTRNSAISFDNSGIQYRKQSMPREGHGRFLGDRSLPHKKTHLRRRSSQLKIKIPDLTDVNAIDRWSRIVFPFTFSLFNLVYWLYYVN

[2] = target: T2, GABAA receptor β3 subunit (α1β3 GABAAR) (Homo sapiens, UniProt P14867+P28472); assay: photoaffinity labeling with residue identification; assay type: binding
T2 sequence (P28472 26-473): T1 sequence (P28472 26-473)
T2 sequence (P14867 28-456): T1 sequence (P14867 28-456)

[3] = target: T2, GABAA receptor β3 subunit (α1β3 GABAAR); assay: [3H]muscimol radioligand filtration binding to purified receptor; conditions: cited from earlier work

Row | SMILES | EC50 [1] [nM] | EC50 [2] [nM] | Kd [3] [nM]
1 | CC(c1ccccc1)n1cncc1C(=O)OCCC1(C)N=N1 (stereo not drawn) [azietomidate, 2-(3-methyl-3H-diaziren-3-yl) ethyl 1-(1-phenylethyl)-1H-imidazole-5-carboxylate] | 2700 ± 1000 | 2700 ± 1000 | 
2 | NCc1cc(=O)[nH]o1 [muscimol, 3-hydroxy-5-aminomethylisoxazole] |  |  | 10
